In patent US6858591B2, “Antibiotic AA 896 analogs” (Wyeth Holdings Corporation, priority 2001, dated 2005):
In brackets after ≈: the same amount, converted by molar mass.

Experiments:
Test in all cases: In vitro MIC, broth dilution
Type in all cases: cell-based
E. coli GC 4559 = conditions: Escherichia coli, GC4559; E. coli GC 4559; read-out: MIC
E. coli GC 4560 = conditions: Escherichia coli, GC4560; E. coli GC 4560; read-out: MIC
E. coli GC 3226 = conditions: Escherichia coli, GC3226; E. coli GC 3226; read-out: MIC
S. marcescens GC 4077 = conditions: Serratia marcescens, GC4077; S. marcescens GC 4077; read-out: MIC
C. albicans GC 3066 = conditions: Candida albicans, GC3066; C. albicans GC 3066; read-out: MIC
M. morganii GC 4531 = conditions: Morganella morganii, GC4531; M. morganii GC 4531; read-out: MIC
K. pneumoniae GC 4534 = conditions: Klebsiella pneumoniae, GC4534; K. pneumoniae GC 4534; read-out: MIC
E. cloacae GC 3783 = conditions: Enterobacter cloacae, GC3783; E. cloacae GC 3783; read-out: MIC
P. aeruginosa GC 4532 = conditions: Pseudomonas aeruginosa, GC4532; P. aeruginosa GC 4532; read-out: MIC
CNS GC 4537 = conditions: CNS GC 4537; read-out: MIC
Method: (§1) The minimum inhibitory concentration (MIC), the lowest concentration of the antibiotic which inhibits growth of the test organism, is determined by the broth dilution method using Muller-Hinton II […] (Baltimore Biological Laboratories) following the recommendations of National Committee for Clinical Laboratory Standards. [Reference for the Methods for dilution antimicrobial susceptibility tests for bacteria that grow aerobically: National Committee for Clinical Laboratory Standards, 1997. Approved standard M7-A National Committee for Clinical Laboratory Standards, Wayne, Pa.] An inoculum level of 5×10^5 CFU/ml, and a range of antibiotic concentrations (64-0.06 μg/ml) is used. The MIC is determined after the microtiter plates are incubated for 18 hours at 35° C. in an ambient air incubator. The test organisms comprise a spectrum of gram-positive bacteria including Staphylococcus sp., Streptococcus sp. and Enterococcus sp. These organisms include recent clinical isolates that are resistant to methicillin, penicillin and vancomycin.

CNS GC 4538 = conditions: CNS GC 4538; read-out: MIC
Method: as §1

CNS GC 4547 = conditions: CNS GC 4547; read-out: MIC
Method: as §1

E. faecalis GC 2242 = conditions: Enterococcus faecalis, GC2242; E. faecalis GC 2242; read-out: MIC
Method: as §1

E. faecalis GC 4555 = conditions: Enterococcus faecalis, GC4555; E. faecalis GC 4555; read-out: MIC
Method: as §1

E. faecalis GC 842 = conditions: Enterococcus faecalis, GC842; E. faecalis GC 842; read-out: MIC
Method: as §1

S. aureus GC 1131 = conditions: Staphylococcus aureus, GC1131; S. aureus GC 1131; read-out: MIC
Method: as §1

S. aureus GC 2216 = conditions: Staphylococcus aureus, GC2216; S. aureus GC 2216; read-out: MIC
Method: as §1

S. aureus GC 4536 = conditions: Staphylococcus aureus, GC4536; S. aureus GC 4536; read-out: MIC
Method: as §1

E. coli GC 2203 = conditions: Escherichia coli, GC2203; E. coli GC 2203; read-out: MIC
P. aeruginosa GC 2214 = conditions: Pseudomonas aeruginosa, GC2214; P. aeruginosa GC 2214; read-out: MIC

COc1ccc(Cn2c(=O)ccn([C@@H]3OC([C@H](O)[C@H](NCCCNC(=O)[C@@H](N)C(C)O)C(=O)O)[C@@H](O)[C@H]3O[Si](C)(C)C(C)(C)C)c2=O)cc1 (stereo partly drawn) [Example 48]
MIC (E. coli GC 4559): > 128 µg/mL
MIC (E. coli GC 4560): 128 µg/mL (≈ 180 µM)
MIC (E. coli GC 3226): > 128 µg/mL
MIC (S. marcescens GC 4077): 128 µg/mL (≈ 180 µM)
MIC (C. albicans GC 3066): 128 µg/mL (≈ 180 µM)
MIC (M. morganii GC 4531): 128 µg/mL (≈ 180 µM)
MIC (K. pneumoniae GC 4534): > 128 µg/mL
MIC (E. cloacae GC 3783): > 128 µg/mL
MIC (P. aeruginosa GC 4532): 128 µg/mL (≈ 180 µM)
MIC (CNS GC 4537): > 128 µg/mL
MIC (CNS GC 4538): > 128 µg/mL
MIC (CNS GC 4547): 128 µg/mL (≈ 180 µM)
MIC (E. faecalis GC 2242): 64 µg/mL (≈ 90.2 µM)
MIC (E. faecalis GC 4555): 128 µg/mL (≈ 180 µM)
MIC (E. faecalis GC 842): 128 µg/mL (≈ 180 µM)
MIC (S. aureus GC 1131): > 128 µg/mL
MIC (S. aureus GC 2216): > 128 µg/mL
MIC (S. aureus GC 4536): > 128 µg/mL
MIC (E. coli GC 2203): > 128 µg/mL
MIC (P. aeruginosa GC 2214): > 128 µg/mL

CC(C)C[C@H](N)C(=O)NCCCN[C@H](C(=O)OC(C)(C)C)[C@@H](O)C1O[C@@H](n2ccc(=O)[nH]c2=O)[C@H](O[Si](C)(C)C(C)(C)C)[C@@H]1O[Si](C)(C)C(C)(C)C (stereo partly drawn) [Example 7, tert-Butyl (2S,3R)-2-[(3-{[(2S)-2-amino-4-methylpentanoyl]amino}propyl)amino]-3-[(3R,4R,5R)-3,4-bis{[tert-butyl(dimethyl)silyl]oxy}-5-(2,4-dioxo-3,4-dihydro-1(2H)-pyrimidinyl)tetrahydro-2-furanyl]-3-hydroxypropanoate]
MIC (E. coli GC 4559): > 128 µg/mL
MIC (E. coli GC 4560): 32 µg/mL (≈ 41.4 µM)
MIC (E. coli GC 3226): > 128 µg/mL
MIC (S. marcescens GC 4077): 128 µg/mL (≈ 166 µM)
MIC (C. albicans GC 3066): 32 µg/mL (≈ 41.4 µM)
MIC (M. morganii GC 4531): 128 µg/mL (≈ 166 µM)
MIC (K. pneumoniae GC 4534): 128 µg/mL (≈ 166 µM)
MIC (E. cloacae GC 3783): 128 µg/mL (≈ 166 µM)
MIC (P. aeruginosa GC 4532): 128 µg/mL (≈ 166 µM)
MIC (CNS GC 4537): 1 µg/mL (≈ 1.3 µM)
MIC (CNS GC 4538): 2 µg/mL (≈ 2.59 µM)
MIC (CNS GC 4547): 2 µg/mL (≈ 2.59 µM)
MIC (E. faecalis GC 2242): 2 µg/mL (≈ 2.59 µM)
MIC (E. faecalis GC 4555): 2 µg/mL (≈ 2.59 µM)
MIC (E. faecalis GC 842): 2 µg/mL (≈ 2.59 µM)
MIC (S. aureus GC 1131): 1 µg/mL (≈ 1.3 µM)
MIC (S. aureus GC 2216): 2 µg/mL (≈ 2.59 µM)
MIC (S. aureus GC 4536): 1 µg/mL (≈ 1.3 µM)
MIC (E. coli GC 2203): > 128 µg/mL
MIC (P. aeruginosa GC 2214): 128 µg/mL (≈ 166 µM)

COc1ccc(Cn2c(=O)ccn([C@@H]3OC([C@H](O)[C@H](NCCCNC(=O)[C@@H](N)[C@@H](O)C(C)C)C(=O)OC(C)(C)C)[C@@H](O[Si](C)(C)C(C)(C)C)[C@H]3O[Si](C)(C)C(C)(C)C)c2=O)cc1 (stereo partly drawn) [Example 2, tert-Butyl (2S,3R)-2-[(3-{[(2S,3S)-2-amino-3-hydroxy-4-methylpentanoyl]amino}propyl)amino]-3-[(3R,4R,5R)-3,4-bis{[tert-butyl(dimethyl)silyl]oxy}-5-(3-(4-methoxybenzyl)-2,4-dioxo-3,4-dihydro-1(2H)-pyrimidinyl)tetrahydro-2-furanyl]-3-hydroxypropanoate]
MIC (E. coli GC 4559): > 128 µg/mL
MIC (E. coli GC 4560): > 128 µg/mL
MIC (E. coli GC 3226): > 128 µg/mL
MIC (S. marcescens GC 4077): > 128 µg/mL
MIC (C. albicans GC 3066): > 128 µg/mL
MIC (M. morganii GC 4531): > 128 µg/mL
MIC (K. pneumoniae GC 4534): > 128 µg/mL
MIC (E. cloacae GC 3783): > 128 µg/mL
MIC (P. aeruginosa GC 4532): > 128 µg/mL
MIC (CNS GC 4537): 4 µg/mL (≈ 4.4 µM)
MIC (CNS GC 4538): 4 µg/mL (≈ 4.4 µM)
MIC (CNS GC 4547): 16 µg/mL (≈ 17.6 µM)
MIC (E. faecalis GC 2242): 4 µg/mL (≈ 4.4 µM)
MIC (E. faecalis GC 4555): 4 µg/mL (≈ 4.4 µM)
MIC (E. faecalis GC 842): 8 µg/mL (≈ 8.81 µM)
MIC (S. aureus GC 1131): 4 µg/mL (≈ 4.4 µM)
MIC (S. aureus GC 2216): 4 µg/mL (≈ 4.4 µM)
MIC (S. aureus GC 4536): 16 µg/mL (≈ 17.6 µM)
MIC (E. coli GC 2203): > 128 µg/mL
MIC (P. aeruginosa GC 2214): > 128 µg/mL
